Read-outs that look alike come from different tables or passages of the source.
Tests used:
[1] = system: spiral ganglion neurons (SGNs); assay: Protection of spiral ganglion neurons from cisplatin-induced degeneration in cochlear explant model (Example B10); format: cell-based; conditions: 1.5 hour pretreatment followed by co-treatment with 10 μM cisplatin
Protocol: (§1) Protective effects of various otoprotectant molecules on cisplatin-induced degeneration of hair cells and spiral ganglion neurons were measured. FIGS. 19 and 20 show the quantified percent protection (normalized to naïve) graphs for outer hair cells (OHCs) and spiral ganglion neurons (SGNs).

outer hair cells (OHCs) = assay: Protection of outer hair cells from cisplatin-induced degeneration in cochlear explant model (Example B10); format: cell-based; conditions: 1.5 hour pretreatment followed by co-treatment with 10 μM cisplatin
Protocol: as §1

cochlear hair cells [2] = system: cochlear hair cells
Protocol: (§2) P2-P4 Sprague Dawley rat pups were used for all experiments.
(§3) Day 0: Dissected whole cochleae were mounted onto Cell-Tak-coated mesh inserts and incubated overnight in growth medium.
(§4) Day 3-4: Cochlea were fixed in 4% PFA overnight then immunohistochemically processed with the following: anti-MyoVIIa (1:500), anti-Neurofilament (1:500), Phalloidin (1:250), and DAPI (1:1000).
(§5) Z-stacks of the entire cochlea were imaged at 20x and stitched together using Zeiss Zen Black software. […] Healthy HCs and SGN fibers were counted within each box using Zeiss Zen Blue software. Error bars represent ±s.e.m. unless otherwise indicated.

cochlear hair cells [3] = assay: Effect of solvents on cisplatin-induced hair cell toxicity in cochlear explants; format: cell-based, Sprague Dawley rat; conditions: for Affect Cisplatin Toxicity: cisplatin exposed explants; for effect on cisplatin-induced hair cell toxicity: summary of Table M
Protocol: as §2, §3, §4, §5

dissociated strial cells = assay: Caspase-Glo 3/7 caspase activation in dissociated strial cultures (Example B7); format: cell-based, Sprague Dawley rat; conditions: 0.5% DMSO vs 0% DMSO
Protocol: Post cochlear dissection, Reissner's membrane and the lateral wall were gently separated from the basilar membrane with fine forceps. The stria vascularis was then pulled off the lateral wall and collected separately. Cells were then dissociated using a pipette post-trypsinization and seeded onto Poly-d-lysine-coated 96-well plates. Cells were grown for 48-72 hours to achieve 80-90% confluency before treatment. […] Following treatment, cells were exposed to the Caspase-Glo 3/7 (Promega) reagent for 30 minutes then […] was read on a plate reader.
The dissociated strial cells were mostly comprised of marginal cells by 24 hours in vitro.

guinea pigs = assay: Acute cisplatin-induced hearing loss (CIHL) model, ABR threshold shift; format: in vivo, guinea pig; conditions: single IT SP-600125 (20 mg/ml) in P407 24 hours prior to cisplatin IP 12 mg/kg; 7 days post-treatment; 4, 8, 16 kHz; vs IT P407 vehicle
Protocol: SP-600125 (20 mg/ml) in P407: 205.4 g of DI water were weighed. 1.1342 g of sodium chloride (Fisher Scientific) and 1.53 g of tromethamine (Fisher Scientific) were added. Solid materials were dissolved and the pH of the solution was adjusted to 7.8 with approximately 1.9 mL of 5 N HCl. 126.2 g of buffer was weighed and chilled down and 24.5 g of Poloxamer 407 (Lutrol F127, BASF) were added (e.g., sprinkled) while mixing to dissolve. The approximately 16% poloxamer solution was sterile filtered with a 0.22 μm PVDF 33 mm syringe filter. 207 mg of milled SP600125 (LC laboratories) was added, followed by […] of sterile filtered 16% Poloxamer 407 solution. The solution was then transferred to 3 mL autoclaved vials.
Female albino guinea pigs […] (n=6 per group) of approximately 6-8 weeks of age served as subjects for the experiments. […]
Auditory Brainstem Response (ABR) assessment—During the procedure, additional anesthetic was administered if needed to maintain the depth of anesthesia sufficient to insure immobilization and relaxation. ABRs were recorded in an electrically and acoustically shielded chamber, one ear at a time. […] Acoustic calibration was performed with TDT software (SigCal) and thresholds were expressed as dB SPL in conditions identical to that of threshold recordings in animals. […]
ABR thresholds were determined 7 days post-treatment at 3 frequencies (4, 8, and 16 kHz).

cochlear hair cells [4] = assay: Cisplatin-induced hair cell damage in ex vivo cochlear explants; format: cell-based, Sprague Dawley rat; parameters: dose or concentration left out as unconfirmed; conditions: various cisplatin concentrations, 48 or 72 hours
Description: (§6) Error bars represent ±s.e.m. unless otherwise indicated.

strial cells = assay: Caspase 3/7 activation in dissociated strial cultures with cisplatin and antioxidants (Example B8); format: cell-based, Sprague-Dawley rat; conditions: cisplatin alone
Description: Neonatal (P2-P4) Sprague-Dawley rats were used for the experiments described here. Animals were euthanized following anesthesia using isoflurane. Rat cochleae were then dissected in cold HBSS medium enriched with glucose.
Following cochlear dissection, Reissner's membrane and the lateral wall were separated and the stria vascularis was then removed from the lateral wall. Strial cells were then dissociated, seeded onto Poly-d-lysine coated 96 well plates and grown to achieve 80-90% confluency before treatment. […] After incubation, cells were lysed using the Promega caspase 3/7 Glo kit and the intensity of caspase 3/7 were read using Perkin-Elmer Enspire plate reader.
At this stage, cells also began to show formation of vessels (Laminin staining).

[5] = system: spiral ganglion neurons (SGNs); assay: Cisplatin-induced spiral ganglion neuron damage in ex vivo cochlear explants; format: cell-based, Sprague Dawley rat; parameters: SGN fiber density (SGNs per 200 μm): dose or concentration left out as unconfirmed
Description: as §6

## Nc1nc2nc[nH]c2c(=S)[nH]1 [6-thioguanine]
[1]
  percent protection (normalized to naïve) of spiral ganglion neurons: complete protection
Outer hair cells (OHCs)
  percent protection (normalized to naïve) of outer hair cells: almost complete protection

## CC(C)=O [Acetone]
Cochlear hair cells [2]; solvent concentration 1%, cochlear explants
  HC Toxicity: No
Cochlear hair cells [2]; solvent concentration 2%, cochlear explants
  HC Toxicity: No
Cochlear hair cells [2]; summary of Table M, all tested concentrations
  toxicity on naive cochlear explants: no evident toxicity
Cochlear hair cells [3]; solvent concentration 1%
  Affect Cisplatin Toxicity: No
Cochlear hair cells [3]; solvent concentration 2%
  Affect Cisplatin Toxicity: No

## CC#N [Acetonitrile]
Cochlear hair cells [2]; solvent concentration 3%, cochlear explants
  HC Toxicity: Slight
Cochlear hair cells [3]; solvent concentration 3%
  Affect Cisplatin Toxicity: No

## O=C(OCc1ccccc1)c1ccccc1 [Benzyl benzoate]
Cochlear hair cells [2]
  HC Toxicity: No
  toxicity on naive cochlear explants: no evident toxicity
Cochlear hair cells [3]; solvent concentration 0.5%
  Affect Cisplatin Toxicity: No
Cochlear hair cells [3]; solvent concentration 1%
  Affect Cisplatin Toxicity: No

## C[S+](C)[O-] [DMSO, dimethyl sulfoxide]
Dissociated strial cells
  effect on cisplatin-induced caspase activation (relative light units): reduced cisplatin-induced caspase activation
Cochlear hair cells [2]
  HC Toxicity: No
  toxicity on naive cochlear explants: no evident toxicity
Cochlear hair cells [3]; solvent concentration 0.1%
  Affect Cisplatin Toxicity: Yes-Protection
Cochlear hair cells [3]; solvent concentration 0.5%
  Affect Cisplatin Toxicity: Yes-Protection
Cochlear hair cells [3]; solvent concentration 1%
  Affect Cisplatin Toxicity: Yes-Protection
Cochlear hair cells [3]
  effect on cisplatin-induced hair cell toxicity: reduced cisplatin-induced hair cell toxicity

## CCO [Ethanol]
Cochlear hair cells [2]
  HC Toxicity: No
  toxicity on naive cochlear explants: no evident toxicity
Cochlear hair cells [3]; solvent concentration 1%
  Affect Cisplatin Toxicity: No
Cochlear hair cells [3]; solvent concentration 2%
  Affect Cisplatin Toxicity: No
Cochlear hair cells [3]; solvent concentration 2.5%
  Affect Cisplatin Toxicity: No

## CN1CCCC1=O [N-Methyl-2-pyrrolidone]
Cochlear hair cells [2]
  HC Toxicity: Yes

## O=C1c2ccccc2-c2n[nH]c3cccc1c23 [SP-600125, anthra[1,9-cd]pyrazol-6(2H)-one]
Guinea pigs
  ABR threshold shift: dramatically reduced the ABR threshold shift

## N.N.[Cl][Pt][Cl] [cisplatin]
Cochlear hair cells [4]
  IHCs per 200 μm: decreased in a dose- and exposure time-dependent manner
  OHCs per 200 μm: decreased in a dose- and exposure time-dependent manner
Strial cells
  caspase 3/7 activation (RLU): increased caspase 3/7 activation
[5]; base, mid, apex regions
  difference from base to apex in SGN susceptibility to cisplatin: No significant difference
[5]; varying concentrations of cisplatin, 48 or 72 hours
  SGN fiber density (SGNs per 200 μm): decreases in a dose dependent manner

## PEG400
Cochlear hair cells [3]; solvent concentration 2%
  Affect Cisplatin Toxicity: Yes-Protection
Cochlear hair cells [3]
  effect on cisplatin-induced hair cell toxicity: reduced cisplatin-induced hair cell toxicity

Source: patent US20210186943A1, “OTIC FORMULATIONS FOR DRUG-INDUCED OTOTOXICITY” (OTONOMY, INC., priority 2018, published 2021)
